Results reported in ChEMBL document CHEMBL5728485, “Biaryloxy derivatives as TTX-S blockers” (2021).
pIC50: −log10 of the molar value.

target: Sodium channel protein type 9 subunit alpha (Homo sapiens, UniProt Q15858); experiment: EFS-FRET Assay: This screen is used to determine the effects of compounds on human Nav1.7 channels, utilizing electrical field stimulation (EFS) system in 96-well plate format on FDSS (Hamamatsu Photonics) platform. The changes of membrane potential are monitored with FRET dye pair, DiSBAC2(3) and PTS 18.
Sequence (Q15858 whole entry): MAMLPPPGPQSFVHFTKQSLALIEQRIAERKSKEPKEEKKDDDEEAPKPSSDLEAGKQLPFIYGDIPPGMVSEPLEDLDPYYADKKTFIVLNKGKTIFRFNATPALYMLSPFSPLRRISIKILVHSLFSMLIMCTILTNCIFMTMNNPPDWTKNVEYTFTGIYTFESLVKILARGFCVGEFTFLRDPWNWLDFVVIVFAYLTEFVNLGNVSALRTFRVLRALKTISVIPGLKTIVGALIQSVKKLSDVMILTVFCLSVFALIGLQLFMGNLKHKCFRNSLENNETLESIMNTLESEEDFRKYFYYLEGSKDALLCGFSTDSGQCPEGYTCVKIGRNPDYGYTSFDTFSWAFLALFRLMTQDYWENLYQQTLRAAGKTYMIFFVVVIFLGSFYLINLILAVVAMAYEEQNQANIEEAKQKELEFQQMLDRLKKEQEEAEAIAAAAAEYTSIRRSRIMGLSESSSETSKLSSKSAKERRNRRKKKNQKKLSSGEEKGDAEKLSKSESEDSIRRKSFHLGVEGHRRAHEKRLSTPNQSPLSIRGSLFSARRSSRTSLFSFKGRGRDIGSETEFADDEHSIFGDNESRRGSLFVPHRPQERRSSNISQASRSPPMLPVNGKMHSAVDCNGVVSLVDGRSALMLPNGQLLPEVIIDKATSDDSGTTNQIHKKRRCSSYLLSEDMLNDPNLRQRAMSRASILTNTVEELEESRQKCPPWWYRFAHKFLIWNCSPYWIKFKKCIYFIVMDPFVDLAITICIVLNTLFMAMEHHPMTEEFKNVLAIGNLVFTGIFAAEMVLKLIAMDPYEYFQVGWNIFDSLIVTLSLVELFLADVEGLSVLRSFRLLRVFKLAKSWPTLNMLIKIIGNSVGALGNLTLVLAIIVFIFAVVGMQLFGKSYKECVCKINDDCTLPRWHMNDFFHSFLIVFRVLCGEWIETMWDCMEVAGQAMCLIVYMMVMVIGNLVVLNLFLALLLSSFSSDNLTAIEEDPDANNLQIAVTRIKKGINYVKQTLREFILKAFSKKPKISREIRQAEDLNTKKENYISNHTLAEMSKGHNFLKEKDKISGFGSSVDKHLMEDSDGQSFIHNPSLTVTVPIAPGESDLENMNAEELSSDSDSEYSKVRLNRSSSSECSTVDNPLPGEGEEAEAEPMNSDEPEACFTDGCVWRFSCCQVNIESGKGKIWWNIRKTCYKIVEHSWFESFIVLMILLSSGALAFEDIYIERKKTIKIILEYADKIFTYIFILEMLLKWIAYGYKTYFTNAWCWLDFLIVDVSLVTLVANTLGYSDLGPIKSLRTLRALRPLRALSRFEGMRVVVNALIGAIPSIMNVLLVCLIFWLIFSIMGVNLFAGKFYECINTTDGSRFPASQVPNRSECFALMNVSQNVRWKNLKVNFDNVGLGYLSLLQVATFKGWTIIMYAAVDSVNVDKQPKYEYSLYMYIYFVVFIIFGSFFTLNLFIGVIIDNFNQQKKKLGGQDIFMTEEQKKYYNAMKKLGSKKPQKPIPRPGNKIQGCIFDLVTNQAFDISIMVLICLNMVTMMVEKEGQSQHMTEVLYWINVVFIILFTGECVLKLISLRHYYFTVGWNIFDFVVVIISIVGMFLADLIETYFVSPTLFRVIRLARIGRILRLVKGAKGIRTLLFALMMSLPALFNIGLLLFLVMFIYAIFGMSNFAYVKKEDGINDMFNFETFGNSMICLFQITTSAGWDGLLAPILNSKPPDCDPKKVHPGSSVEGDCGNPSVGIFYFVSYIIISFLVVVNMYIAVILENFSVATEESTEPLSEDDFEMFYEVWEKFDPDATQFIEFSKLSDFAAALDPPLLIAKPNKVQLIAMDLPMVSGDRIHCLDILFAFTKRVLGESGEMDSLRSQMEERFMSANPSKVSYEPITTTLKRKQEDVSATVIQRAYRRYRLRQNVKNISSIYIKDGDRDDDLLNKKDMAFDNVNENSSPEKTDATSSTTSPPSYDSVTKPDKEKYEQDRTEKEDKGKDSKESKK

pIC50, > 6.30:
CS(=O)(=O)NC(=O)c1ccc(COc2cc(F)cc(-c3cncc(OCC4CC4)c3)c2)cc1, Cc1cc(OCC2CC2)ncc1-c1cc(F)cc(OCc2ccc(C(=O)NS(C)(=O)=O)cc2)c1, CS(=O)(=O)NC(=O)c1ccc(COc2cc(F)cc(-c3ccc(OCC4CC4)nc3)c2)nc1, Cn1cc(-c2cc(OCc3ccc(C(=O)NS(C)(=O)=O)cc3)cc(-c3ccc(OCC4CC4)nc3)c2)cn1, CS(=O)(=O)NC(=O)c1ccc(COc2cccc(-c3cnc(OCC4CCC4)cn3)c2)cc1, O=C(NS(=O)(=O)c1cccs1)c1ccc(COc2cccc(-c3ccc(OCC4CC4)nc3)c2)c(F)c1, Cc1nc(OCC2CCC2)ccc1-c1cc(F)cc(OCc2ccc(C(=O)NS(C)(=O)=O)cc2)c1, CS(=O)(=O)NC(=O)c1ccc(COc2cccc(-c3cncc(OCC4CC4)n3)c2)cc1, CS(=O)(=O)NC(=O)c1ccc(COc2cc(-c3ccccc3)cc(-c3ccc(OCC4CC4)nc3)c2)cc1, CS(=O)(=O)NC(=O)c1ccc(COc2cc(F)cc(-c3cnc(OCC4CCC4)c(CO)c3)c2)c(F)c1, Cc1c(-c2cc(OCc3ccc(C(=O)NS(C)(=O)=O)cc3F)ccc2F)ccnc1OCC1CC1, CS(=O)(=O)NC(=O)c1ccc(COc2cccc(-c3cccc(OCC4CC4)n3)c2)cc1, Cc1cc(OCC2CC2)ncc1-c1cccc(OCc2ccc(C(=O)NS(C)(=O)=O)cc2)c1, CS(=O)(=O)NC(=O)c1ccc(COc2cccc(-c3cnc(OCC4CCC4)cn3)c2)c(F)c1, CS(=O)(=O)NC(=O)c1ccc(COc2cc(F)cc(-c3ccc(OCC4CC4)nc3)c2)cc1, CS(=O)(=O)NC(=O)c1ccc(COc2cc(F)cc(-c3cnc(OCC4CC4)cn3)c2)cc1, Cc1c(-c2cc(F)cc(OCc3ccc(C(=O)NS(C)(=O)=O)cc3)c2)ccnc1OCC1CC1, CS(=O)(=O)NC(=O)c1ccc(COc2cccc(-c3cnc(OCC4CC4)cn3)c2)cc1, O=C(NS(=O)(=O)c1nccs1)c1ccc(COc2cccc(-c3ccc(OCC4CC4)nc3)c2)c(F)c1, CS(=O)(=O)NC(=O)c1ccc(COc2cccc(-c3ccc(OCC4CCOCC4)nc3)c2)cc1, Cc1cc(OCC2CCC2)cnc1-c1cccc(OCc2ccc(C(=O)NS(C)(=O)=O)cc2)c1, CS(=O)(=O)NC(=O)c1ccc(COc2cccc(-c3ccc(OCC4CC4)cc3)c2)cc1, CS(=O)(=O)NC(=O)c1ccc(COc2cccc(-c3ccc(OCC4CCC4)nc3CO)c2)c(F)c1, CN(CC1CC1)c1cc(-c2cccc(OCc3ccc(C(=O)NS(C)(=O)=O)cc3F)c2)ccn1, CS(=O)(=O)NC(=O)c1ccc(COc2cc(F)cc(-c3ncc(OCC4CC4)cc3F)c2)cc1, CC(C)(C)OC(=O)N1CC(COc2ccc(-c3cccc(OCc4ccc(C(=O)NS(C)(=O)=O)cc4F)c3)cn2)C1, CS(=O)(=O)NC(=O)c1ccc(COc2cccc(-c3ccnc(OCC4CC4)c3)c2)cc1, O=C(NS(=O)(=O)CC1CC1)c1ccc(COc2cccc(-c3ccc(OCC4CC4)nc3)c2)c(F)c1, CS(=O)(=O)NC(=O)c1ccc(COc2ccc(F)c(-c3cccc(OCC4CC4)n3)c2)c(F)c1, CS(=O)(=O)NC(=O)c1ccc(COc2cccc(-c3cnc(OCC4CC4)c(Cl)c3)c2)c(F)c1, CS(=O)(=O)NC(=O)c1ccc(COc2cccc(-c3ccc(OCC4CC4)nc3)c2)c(C#N)c1, CS(=O)(=O)NC(=O)c1ccc(COc2cccc(-c3ccc(OCC4CCCC4)nc3)c2)cc1, CC(C)(C)OC(=O)N1CCC(COc2ccc(-c3cccc(OCc4ccc(C(=O)NS(C)(=O)=O)cc4)c3)cn2)CC1, O=C(NS(=O)(=O)C1CC1)c1ccc(COc2cccc(-c3ccc(OCC4CC4)nc3)c2)cc1, O=C(NS(=O)(=O)CC1CC1)c1ccc(COc2cc(F)cc(-c3ccc(OCC4CC4)nc3)c2)cc1, Cc1cc(OCC2CCC2)cnc1-c1cccc(OCc2ccc(C(=O)NS(C)(=O)=O)cc2F)c1, CS(=O)(=O)NC(=O)c1cc(F)c(COc2cccc(-c3ccc(OCC4CC4)nc3)c2)c(F)c1, Cc1cc(OCc2ccc(C(=O)NS(=O)(=O)C3CC3)cc2F)cc(-c2ccc(OCC3CC3)nc2)c1, CS(=O)(=O)NC(=O)c1ccc(COc2cccc(-c3ncc(OCC4CC4)cc3Cl)c2)cc1, O=C(NS(=O)(=O)C1CC1)c1ccc(COc2cc(F)cc(-c3ccc(OCC4CC4)nc3)c2)cc1, CS(=O)(=O)NC(=O)c1ccc(COc2cccc(-c3cncc(OCC4CC4)c3)c2)c(F)c1, CS(=O)(=O)NC(=O)c1ccc(COc2cc(C#N)cc(-c3ccc(OCC4CC4)nc3)c2)cc1, CS(=O)(=O)NC(=O)c1ccc(COc2cccc(-c3ccc(OCC4CC(F)(F)C4)nc3)c2)cc1, CS(=O)(=O)NC(=O)c1ccc(COc2cccc(-c3ccc(OCC4CC4)cn3)c2)c(F)c1, CS(=O)(=O)NC(=O)c1ccc(COc2ccc(Cl)c(-c3ccc(OCC4CC4)nc3)c2)cc1, CC(C)S(=O)(=O)NC(=O)c1ccc(COc2cc(F)cc(-c3ccc(OCC4CC4)nc3)c2)cc1, CS(=O)(=O)NC(=O)c1ccc(COc2cc(F)cc(-c3cc(OCC4CC4)ncn3)c2)cc1, COc1cc(C(=O)NS(C)(=O)=O)ccc1COc1cccc(-c2ccc(OCC3CC3)nc2)c1, CS(=O)(=O)NC(=O)c1ccc(COc2cc(F)cc(-c3cnc(OCC4CCC4)c(CO)c3)c2)cc1, CS(=O)(=O)NC(=O)c1ccc(COc2cc(-c3ccc(OCC4CC4)nc3)cc(C(F)(F)F)c2)cc1, N#Cc1cc(C(=O)NS(=O)(=O)C2CC2)ccc1COc1cccc(-c2ccc(OCC3CC3)nc2)c1, CS(=O)(=O)NC(=O)c1ccc(COc2cc(F)cc(-c3cnc(OCC4CC4)c(Cl)c3)c2)c(F)c1, Cc1ccc(OCc2ccc(C(=O)NS(C)(=O)=O)cc2F)cc1-c1ccc(OCC2CC2)nc1, CS(=O)(=O)NC(=O)c1ccc(COc2cc(F)cc(-c3ncc(OCC4CC4)cn3)c2)cc1, Cc1nc(OCC2CC2)ccc1-c1cccc(OCc2ccc(C(=O)NS(C)(=O)=O)cc2)c1, CS(=O)(=O)NC(=O)c1ccc(COc2cccc(-c3ncc(OCC4CC4)cn3)c2)c(F)c1, CS(=O)(=O)NC(=O)c1ccc(COc2ccc(F)c(-c3ccc(OCC4CC4)nc3)c2)cc1, CS(=O)(=O)NC(=O)c1ccc(COc2cc(F)cc(-c3ccc(OCC4CCOC4)nc3)c2)cc1 (centres undefined), Cc1cc(-c2cccc(OCc3ccc(C(=O)NS(C)(=O)=O)cc3)c2)cnc1OCC1CC1, Cc1cc(OCC2CC2)ncc1-c1cccc(OCc2ccc(C(=O)NS(C)(=O)=O)cc2F)c1, CS(=O)(=O)NC(=O)c1ccc(COc2cccc(-c3ccnc(OCC4CC4)c3)c2)c(F)c1, CS(=O)(=O)NC(=O)c1ccc(COc2cccc(-c3ccc(OCC4CC4)nc3)c2)cc1F, CS(=O)(=O)NC(=O)c1ccc(COc2cc(Cl)cc(-c3ccc(OCC4CC4)nc3)c2)cc1, CS(=O)(=O)NC(=O)c1ccc(COc2cc(Br)cc(-c3ccc(OCC4CC4)nc3)c2)cc1, Cc1c(OCC2CC2)ncnc1-c1cccc(OCc2ccc(C(=O)NS(C)(=O)=O)cc2F)c1, CN(C)C(=O)c1cc(-c2cccc(OCc3ccc(C(=O)NS(C)(=O)=O)cc3F)c2)ccc1OCC1CC1, CS(=O)(=O)NC(=O)c1ccc(COc2cccc(-c3cnc(OCC4CC4)nc3)c2)c(F)c1, CS(=O)(=O)NC(=O)c1ccc(COc2cccc(-c3ccc(OCC4CC4)nc3)c2)c(Cl)c1, CS(=O)(=O)NC(=O)c1ccc(COc2cccc(-c3cnc(OCC4CCC4)c(CO)c3)c2)cc1
